In test [1] the target is T1, Bromodomain-containing protein 4 (Homo sapiens, UniProt O60885). Nature of the test: Inhibition of human recombinant BRD4 BD1 (42 to 167 residues) extracted from Escherichia coli BL21 (DE3) at 10 uM incubated for 2 hrs by TR-FRET assay relative to control. (In general: In TR-FRET formats the signal depends on donor and acceptor labels being close together.)
The target in test [2] is T1, Bromodomain-containing protein 4. Nature of the test: Inhibition of human recombinant BRD4 BD2 (349 to 460 residues) extracted from Escherichia coli BL21 (DE3) at 10 uM incubated for 2 hrs by TR-FRET assay relative to control.
The subject of test [3] is RAW264.7. Nature of the test: Anti-inflammatory activity in mouse RAW264.7 cells assessed as inhibition of LPS-induced NO production at 10 uM preincubated with compound for 24 hrs followed by LPS stimulation by Griess reagent based analysis relative to control. Type of test: functional. Further details: scale not given: the % may be the effect or the level left.
Test [4] has as its target T1, Bromodomain-containing protein 4. Nature of the test: Inhibition of human recombinant BRD4 BD1 (42 to 167 residues) extracted from Escherichia coli BL21 (DE3) incubated for 2 hrs by TR-FRET assay.
The target is the same in test [5]. Nature of the test: Inhibition of human recombinant BRD4 BD2 (349 to 460 residues) extracted from Escherichia coli BL21 (DE3) incubated for 2 hrs by TR-FRET assay.
Test [6] concerns RAW264.7. Briefly: Anti-inflammatory activity in mouse RAW264.7 cells assessed as inhibition of LPS-induced NO production preincubated with compound for 24 hrs followed by LPS stimulation by Griess reagent based analysis. Type of test: functional, cell-based.
Test [7] has as its target T1, Bromodomain-containing protein 4. Briefly: Selectivity index, ratio of IC50 for human recombinant BRD4 BD1 (42 to 167 residues) extracted from Escherichia coli BL21 (DE3) to IC50 for human recombinant BRD4 BD2 (349 to 460 residues) extracted from Escherichia coli BL21 (DE3).
The target is the same in test [8]. Nature of the test: Inhibition of BRD4 (unknown origin).
For test [9], the system named is THP-1. Nature of the test: Anti-inflammatory activity in human THP-1 cells assessed as inhibition of LPS-induced TNF-alpha expression preincubated with compound for 2 hrs followed by LPS stimulation and measured after 6 hrs by RT-qPCR analysis. Type of test: functional, cell-based. Particulars: dose 2.5-20 µM, time 8.0 hrs.
Test [10] has as its system RAW264.7. Briefly: Anti-inflammatory activity in mouse RAW264.7 cells assessed as inhibition of LPS-induced TNF-alpha expression preincubated with compound for 2 hrs followed by LPS stimulation and measured after 6 hrs by RT-qPCR analysis. Type of test: functional, cell-based. Particulars: dose 2.5-20 µM, time 8.0 hrs.
In test [11] the test system is THP-1. Nature of the test: Anti-inflammatory activity in human THP-1 cells assessed as inhibition of LPS-induced IL-6 expression preincubated with compound for 2 hrs followed by LPS stimulation and measured after 6 hrs by RT-qPCR analysis. Type of test: functional, cell-based. The settings on record: dose 2.5-20 µM, time 8.0 hrs. In general terms: Quantitative PCR measures a nucleic acid by following its amplification.

Test [12] relates to RAW264.7. Nature of the test: Anti-inflammatory activity in mouse RAW264.7 cells assessed as inhibition of LPS-induced IL-6 expression preincubated with compound for 2 hrs followed by LPS stimulation and measured after 6 hrs by RT-qPCR analysis. Type of test: functional, cell-based. Particulars: dose 2.5-20 µM, time 8.0 hrs.

Calls of active or inactive are those of the source. The calls are words filed in the database; no cut-off is given here. Bounds are passed on as bounds.

Take `COc1cc(C(=O)c2nc3ccccc3c(=O)[nH]2)cc(OC)c1OC`: the inhibition – broadly, the change of the read-out against control, counted positive when it falls – in [1] came to 22%; in test [2] it was 15%.
Take `COc1ccc(C(=O)c2nc3cc(OC)c(I)c(OC)c3c(=O)[nH]2)cc1`: in the test on RAW264.7 [3], the Activity stood at 14%. The IC50 in test [4] and in test [5] was more than 10 µM in each case. The inhibition is 10% in test [1] and 53% in test [2].
Turning to `COc1cc(OC)c2c(=O)[nH]c(C3CCN(Cc4ccccc4)CC3)nc2c1`, the Activity with RAW264.7 [3] was 89%. The IC50 – broadly, the concentration at which inhibition is half-maximal – is 7.87 µM in test [4], 6.78 µM in the test with RAW264.7 [6] and more than 10 µM in [5]. Also, the inhibition in test [1] is 51%; in test [2], 46%.
Consider `O=C(c1ccc(O)cc1)c1nc2ccccc2c(=O)[nH]1`, for which the inhibition in test [1] turned out to be 17%; in test [2], 11%.
With `COc1cc(OC)c2c(=O)[nH]c(C=C(c3ccccc3)c3ccccc3)nc2c1`, the Activity in the test with RAW264.7 [3] was determined as 21%. The figures for the IC50 in [4] and in test [5] were more than 10 µM and 7.06 µM, respectively. For the same molecule, the inhibition came to 3.1% in test [1] and 66% in test [2]. Moreover, the Ratio IC50 in test [7] is more than 1.
In the case of `COc1cc(OC)c2c(=O)[nH]c(C(=O)c3cccc(C(F)(F)F)c3)nc2c1`, in the test with RAW264.7 [3], the Activity came to 12%. Further, the 50% inhibitory concentration (IC50) in test [4] and in test [5] was more than 10 µM each time. Also, the inhibition was determined as 13% in test [1] and 53% in test [2].
Take `COc1cc(OC)c2c(=O)[nH]c(C(=O)c3ccc(OCCO)cc3)nc2c1`: the inhibition was 1.3% in [1] and 48% in test [2].
Regarding `COc1ccc(C(=O)c2nc3ccccc3c(=O)[nH]2)cc1`, the Activity with RAW264.7 [3] came to 5.4%. Besides, in test [4], the IC50 turned out to be 2.16 µM. Further, the inhibition in [1] is 54%; in test [2] it was 42%.
`Cc1nnn(C)c1-c1cnc2c3cc4cnn(C)c4cc3n([C@H](c3ccccc3)C3CCOCC3)c2c1`: the midpoint of inhibition in [8], the IC50, lay at 0.00245 µM.
Turning to `COc1cc(OC)c2c(=O)[nH]c(/C=C/c3ccc(N(C)C)cc3)nc2c1`, the Activity in the test with RAW264.7 [3] is on record as 24%. In addition, the IC50 in test [4] is more than 10 µM; in [5], 0.47 µM. The results for the inhibition in test [1] and in test [2] were 24% and 74%, respectively. Further, the Ratio IC50 in [7] is more than 21.
For the molecule `C[C@@H]1C[C@H]2[C@@H]3CCC4=CC(=O)C=C[C@]4(C)[C@@]3(F)[C@@H](O)C[C@]2(C)[C@@]1(O)C(=O)CO` [DEXAMETHASONE], the Activity in the test on RAW264.7 [3] was found to be 29%.
For the molecule `COc1cc(OC)c2c(=O)[nH]c(C(=O)c3ccc(F)cc3)nc2c1`, in the test on RAW264.7 [3], the Activity stood at 18%. The inhibition result in [4] and in test [1] was “inactive” in each case. For the same molecule, the Ratio IC50 in test [7] is more than 10. Also, the inhibition in test [2] was 52%. Further, the half-maximal inhibitory concentration (IC50) in test [5] was 1.84 µM.
Take `COc1cc(OC)c2c(=O)[nH]c(C(=O)c3ccc(OC)c(OC)c3)nc2c1`: the inhibition was found to be 13% in test [1] and 47% in test [2].
`O=C(c1ccc2ccccc2c1)c1nc2ccccc2c(=O)[nH]1`: the inhibition in [1] was 16%; in [2], 17%.
In the case of `COc1cc(OC)c2c(=O)[nH]c(-c3cc(C)c(OCCO)c(C)c3)nc2c1` [APABETALONE], the Activity was 74% with RAW264.7 [3]; “Dose-dependent-effect” in the test with THP-1 [9]; “Dose-dependent-effect” in the test on RAW264.7 [10]; “Dose-dependent-effect” in the test with THP-1 [11]; “Dose-dependent-effect” in the test on RAW264.7 [12]. Moreover, the inhibition in test [2] came out at 99%. Besides, in the test with RAW264.7 [6], the IC50 worked out at 8.76 µM.
For the molecule `COc1cc(OC)c2c(=O)[nH]c(C(=O)c3cc(F)ccc3F)nc2c1`, the values for the inhibition in test [1] and in test [2] were 10% and 46%, respectively.
Turning to `COc1cc(OC)c2c(=O)[nH]c(CC(C)c3ccc(C(C)(C)C)cc3)nc2c1` (stereo not given), the Activity in the test with RAW264.7 [3] was determined as 3.4%. Moreover, the IC50 in test [4] is more than 10 µM; in test [5], 0.74 µM. Further, the inhibition in test [1] turned out to be 54%; in [2] it was 97%. Further, the Ratio IC50 in test [7] is more than 13.
For `COc1ccc(Cc2nc3cc(OC)cc(OC)c3c(=O)[nH]2)cc1`, the Activity in the test on RAW264.7 [3] was 15%. Moreover, the IC50 is 4.59 µM in [4] and 1.52 µM in test [5]. In addition, the figures for the inhibition in test [1] and in test [2] were 56% and 75%, respectively. The Ratio IC50 in test [7] came to 3.
In the case of `COc1cc(OC)c2c(=O)[nH]c(/C(C)=C/c3ccccc3)nc2c1`, the Activity in the test with RAW264.7 [3] amounted to 6.8%. The IC50 is more than 10 µM in test [4] and 1.33 µM in test [5]. The inhibition is 20% in test [1] and 59% in test [2]. The Ratio IC50 in test [7] was more than 7.
Take `COc1cc(OC)c2c(=O)[nH]c(/C=C/c3cc(OC)c(O)c(OC)c3)nc2c1`: the Activity with RAW264.7 [3] was 18%. Further, the IC50 was more than 10 µM in test [4] and 0.39 µM in test [5]. Moreover, the inhibition in test [1] is 13%; in test [2], 98%. Also, the Ratio IC50 in test [7] is more than 26.
Turning to `COc1cc(OC)c2c(=O)[nH]c(/C=C/c3ccc(Cl)cc3)nc2c1`, in the test on RAW264.7 [3], the Activity amounted to 11%. Moreover, the IC50 in test [4] and in [5] was more than 10 µM each time. In addition, the inhibition is 23% in test [1] and 54% in [2].
With `COc1cc(OC)c2c(=O)[nH]c(C(=O)c3cc(OC)c(OC)c(OC)c3)nc2c1`, the inhibition in test [1] was determined as 11%; in [2], 17%.
`COc1ccc(CCc2nc3cc(OC)cc(OC)c3c(=O)[nH]2)cc1`: the Activity in the test with RAW264.7 [3] was 17%. For the same molecule, the IC50 in test [4] is more than 10 µM; in [5] it was 0.74 µM. In addition, the inhibition was determined as 12% in [1] and 86% in test [2]. Moreover, the Ratio IC50 in test [7] is more than 13.
`COc1cccc(/C=C/c2nc3cc(OC)cc(OC)c3c(=O)[nH]2)c1`: the Activity in the test on RAW264.7 [3] was found to be 78%. Moreover, the inhibition result in [4] and in test [1] was “inactive” each time. Further, in test [2], the inhibition was 67%. For the same molecule, the IC50 in the test on RAW264.7 [6] was 5.22 µM; in test [5], more than 10 µM.
`COc1ccc(C(=O)c2nc3cc(OC)cc(OC)c3c(=O)[nH]2)cc1`: the Activity in the test with RAW264.7 [3] is reported as 6.4%. Further, the inhibition entry in test [4] and in test [1] was “inactive” each time. Also, the Ratio IC50 in test [7] is more than 10. For the same molecule, in test [2], the inhibition was determined as 51%. For the same molecule, the IC50 in test [5] was determined as 3.93 µM.
As for `COc1cc(OC)c2c(=O)[nH]c(C(=O)c3cccc(C#N)c3)nc2c1`, the values for the inhibition in test [1] and in [2] were 12% and 48%, respectively.

The values above are taken from ChEMBL document CHEMBL6121006, “Marine natural product-inspired discovery of novel BRD4 inhibitors with anti-inflammatory activity” (Eur J Med Chem, 2025).
